According to patent US20140302022A1, “2-CARBOXAMIDE CLYCLOAMINO UREA DERIVATIVES FOR USE IN TREATING VEGF-DEPENDENT DISEASES” (priority 2011, published 2014):
Values joined by “and” are separate entries in the source; they are usually repeats but may differ in a detail not shown here. Equal entries are not always repeated.

Key:
[1] = tested on: angiogenic response induced by VEGF; test: In vivo chamber implant angiogenesis assay, VEGF-stimulated; design: species or system FVB mice
Experimental: (§1) Porous perfluoro-alkoxy-Teflon® chambers containing PBS or VEGF (2 μg/mL) in 0.5 ml of 0.8% w/v agar (containing heparin, 20 U/mL) were implanted subcutaneously in the flank of FVB mice. Animals were treated orally either with Compound A at 12.5, 25 and 50 mg/kg once a day or vehicle (5 ml/kg) starting 4-6 hours before implantation of the chambers and daily for 3 days. VEGF induces the growth of vascularized tissue around the chamber. The angiogenic response can be quantified by measuring the weight and Tie-2 levels of the tissue. Animals were sacrificed 4 days after the implantation. Values are mean±SEM. *p<0.05, statistical significance of inhibition. The total number of animals per group is given in brackets.
(§2) Sterile tissue chambers made of perfluoro-alkoxy-Teflon® were filled with 500 μl molten 0.8% w/v agar containing 20 U/mL heparin (Novo Nordisk A/S, Bagsvaerd, Denmark) with or without growth factor (dog VEGF 2 μg/mL or phosphate buffer saline (PBS/O)). The chamber was implanted aseptically under isoflurane anesthesia through a small incision on the back of the animal and the incision was closed by wound clips. Animals were treated orally either with Compound A at 12.5, 25 or 50 mg/kg once a day formulated in a vehicle of NMP/PEG300 (10/90, V/V) or vehicle alone starting 4-6 hours before implantation of the chambers and daily for three days. VEGF induces the growth of vascularized tissue around the chamber. The angiogenic response can be quantified by measuring the weight and Tie-2 levels of the tissue.
(§3) Four days after implantation, animals were sacrificed using CO2. The chambers were recovered from the animal and the vascularized tissue that had formed around each implant was carefully removed and weighed. Tissue samples were homogenized for 30 sec at 24000 rpm (Ultra Turrax T25) after addition of 1 mL of Ripa buffer (Tris-HCl 50 mM, NaCl 120 mM, EDTA 1 mM, EGTA 6 mM, NP-40 1%, Sodium fluoride 20 mM, Pefabloc SC 1 mM, Sodium vanadate 1 mM). The samples were then centrifuged for 1 h at 7000 rpm. The supernatant was filtered using a 0.45 μm syringe filter (Acrodisc® GF, Gelman Sciences, Ann Arbor, Mich., USA) to avoid fat contamination.
Tie-2 is a receptor tyrosine kinase which is specifically expressed on endothelial cells. For Tie-2 level determination, Nunc (Naperville, Ill.) Maxisorp 96-well plates were coated over night at 4° C. with the capture antibody, anti-Tie-2 AB33 (UBI, Hauppauge, N.Y.), with a concentration of 2 μg/mL (100 μL/well). Wells were washed in TPBS (Tween 80 PBS) and blocked by incubating with 3% Top-Block (Juro, Lucerne, Switzerland) for 2 hours at room temperature. 300 μg of protein lysates were added and incubated for 2 hours, and the wells washed three times before addition of a goat anti-mouse Tie-2 antibody (R&D Systems, Minneapolis, Minn.; 0.5 μg/mL) and an alkaline phosphate conjugated anti-goat antibody (Sigma, St. Louis, Mo.; diluted 1:6,000) in TPBS+0.1%Top-Block for 1 hour at room temperature. Tie-2 antibody complexes were detected after incubation with p-nitrophenyl phosphate substrate (Sigma). The absorbance of the spectro-photometric reaction was determined with an ELISA reader at 405 nm. Recombinant human extracellular domain of Tie-2 fused to the constant regions of human IgG1 (sTie-2Fc) dissolved in RIPA buffer was used as standard in a concentration range from 0.1 to 300 ng/well
Four days after the subcutaneous implantation of the VEGF containing chambers, VEGF induced the formation of a thick layer of neovascularised tissue (called capsule) that grew around the implant. PBS containing chambers induced a much thinner layer of tissue with very few blood vessels around control chamber. Tissue formation can be quantified by measuring the weight and the angiogenic response can be quantified by measuring the Tie-2 levels of the capsule. An ELISA assay can quantitatively measure endothelial cells in tissue extracts to evaluate the vascularization of the tissue. […]

[2] = tested on: basal induced angiogenesis; test: In vivo chamber implant angiogenesis assay, base line (no GF stimulation, PBS control chamber); design: species or system FVB mice
Experimental: as §1, with “PBS” for “PBS or VEGF (2 μg/mL)”, “at” for “at 12.5, 25 and”, “Basal” for “VEGF induces the growth of vascularized”, “tissue formed” for “tissue”, “chamber was carefully removed and” for “chamber. The angiogenic response can be quantified by measuring”, “were quantified.” for “of the tissue.”
as §2, §3
Tie-2 is a receptor tyrosine kinase which is specifically expressed on endothelial cells. For Tie-2 level determination, Nunc (Naperville, Ill.) Maxisorp 96-well plates were coated over night at 4° C. with the capture antibody, anti-Tie-2 AB33 (UBI, Hauppauge, N.Y.), with a concentration of 2 μg/mL (100 μL/well). Wells were washed in TPBS (Tween 80 PBS) and blocked by incubating with 3% Top-Block (Juro, Lucerne, Switzerland) for 2 hours at room temperature. […] Tie-2 antibody complexes were detected after incubation with p-nitrophenyl phosphate substrate (Sigma). The absorbance of the spectro-photometric reaction was determined with an ELISA reader at 405 nm. […]
Four days after the subcutaneous implantation of the VEGF containing chambers, VEGF induced the formation of a thick layer of neovascularised tissue (called capsule) that grew around the implant. […] Tissue formation can be quantified by measuring the weight and the angiogenic response can be quantified by measuring the Tie-2 levels of the capsule. An ELISA assay can quantitatively measure endothelial cells in tissue extracts to evaluate the vascularization of the tissue. […]

[3] = tested on: VEGF-induced vessel leakage; test: In vivo VEGF induced permeability assay (Miles assay); design: species or system FVB mice; conditions: 3, 6.25, 12.5 and 25 mg/kg p.o., 5 hours before VEGF injection in the ear
Experimental: FIG. 3: Effects of Compound A on VEGF induced permeability in vivo. FVB mice pre-treated with Compound A (3, 6.25, 12.5 and 25 mg/kg, p.o., for 5 h) were injected i.v. with Evans blue and challenged 30 minutes later with VEGF injection in the ear. Mice were then sacrificed and VEGF-mediated vessel leakage is quantified by measurement of the area (mm^2) of dye that extravasated at the site of VEGF injection using pixel-based threshold in computer-assisted image analysis software. Values are mean±SEM. *p<0.05, statistical significance of inhibition. The total number of animals per group is given in brackets.
200 μl of Evans blue (0.5%) was injected into the tail vein of female FVB mice. Thirty minutes following administration of the dye, the mice were anaesthesized (3% Isoflurane in O2, Forene®, Abbott AG, Cham, Switzerland) and then placed on an operating field maintained at a temperature of 39° C. Their ears were extended over a steel cone fitted with a double-sided sticker to expose the dorsal surface. […] VEGF-mediated vessel leakage is quantified by measurement of the area (mm^2) of dye that extravasated at the site of VEGF injection using pixel-based threshold in a computer-assisted image analysis software (KS-400 3.0 imaging system, Zeiss, Germany). […]

BN472 tumors [4] = test: Tumor interstitial fluid pressure (IFP) by radio-telemetry; assay type: in vivo, Brown-Norway (BN) rats
Experimental: FIG. 4: Effects of Compound A on tumor interstitial fluid pressure. (A) Orthotopic BN472 tumor bearing rats containing a pressure sensing catheter inserted in the tumor were treated with Compound A at 25 mg/kg (n=6; initial IFP: 25.4 mmHg±2.8), or with the vehicle control (n=9; 18.2 mmHg±1.5) for 3 consecutive days. The IFP was recorded for 72 h and variations (delta towards initial values) plotted (gray lines: untreated animals; dark line: applied treatment as indicated in the graph). Data presented are means±SEM. (B) Same as in A except that additional animals were treated orally with a lower dose of 12.5 mg/kg Compound A (n=3; initial IFP: 18.8 mmHg±2.3; gray line). Recording was extended for 3 additional days post last treatment to assess recovery patterns. The arrows represent the administration schedule. Gray bars represent night time.
The IFP of BN472 tumors was measured in conscious, freely moving rats maintained in their home cage using an adapted fully implantable miniaturized radio-telemetry system (Data Sciences Int., St. Paul, Minn.) composed of 4 basic components: an implantable transmitter (AM unit, model TLM-PAC10, volume: 1.1 cc, weight: 1.4 g) which continuously senses and transmits information from within the animal, one receiver located under the home cage, a matrix interface for coordination of signals and a computer-based data acquisition system for collection, analysis and storage of data. The body of the transmitter was implanted s.c. under aseptic conditions into the flank of the animal under isofluorane anaesthesia (3% Isoflurane in O2). Briefly, once animals are fully unconscious, they are placed on a heated blanket and the abdominal area is shaved. The ventral surface of the abdomen is then prepared by swabbing the skin with povidone iodine surgical scrub. With the animal supine, a skin incision of approximately 30 mm is made along the midline of the abdomen and the skin separated from the muscle wall building an air pocket. The sterile transmitter is then positioned in this pocket and the sensing catheter tunneled subcutaneously towards the tumor site (lowest mammary fat pad). The sensing pressure catheter was inserted into the body of the tumor (4-5 mm depth) and secured at the site of entry with tissue adhesive (Vetbond; 3M Company). Fluid communication between the tip of the pressure catheter and the tumor was tested by gentle compressing and decompressing the tubing connected to the telemetry transducer using a clamp. […] However, in most of the implanted tumors, intra-tumoral IFP pulse pressure waveform curves could be recorded unstintingly with high resolution confirming even more strongly the adequate sensing catheter placement. The total operation time for the implantation of the telemetry transmitter was about 20 min. Postoperative analgesia was provided using Buprenorphin (Temgesic®, Reckitt and Colman) injection of 0.05 mg/kg s.c. twice, immediately after surgery and 8-12 h later. Following surgery, the unconscious animal is placed on soft material in a clean cage with water ad libitum. An external heat lamp is used to maintain body temperature. The animals were allowed a period of 2 days to recover from surgery before starting acquisition of any physiological data. IFP was recorded continuously in all animals over 24 hours up to 5 days, and analyzed in 1-min cyclic runs for 10 sec, with a 500-Hz sampling rate. Values presented are means over 15 min periods.

BN472 tumors [5] = test: Efficacy experiment with orthotopic BN472 rat mammary carcinoma model; conditions: qd, p.o.; for T/C (%): 0.5% Methylcellulose suspension
Excerpt: BN472 tumors were established by orthotopic implantation of tumor fragments into the mammary fat pad of BN rats. Female Brown-Norway (BN) rats (obtained from Charles River (France)) weighing 160-180 g (6-7 weeks of age) were used for all experiments. They were identified by tail markings and kept in groups of 3-5 animals under normal conditions with access to food and water ad libitum. Tumor fragments of 25 mm^3 were taken from the cortex region and were transplanted orthotopically under the fat pad of the fourth left mammary gland of the recipients. For efficacy experiments, treatments were always initiated when the mean tumor volume in each group reached 400-500 mm^3.

[6] = 12.5 mg/kg p.o. once a day, exp. 2, mean ± SEM
[7] = 25 mg/kg p.o. once a day, exp. 2, mean ± SEM
[8] = 50 mg/kg p.o. once a day, exp. 1, mean ± SEM
[9] = 50 mg/kg p.o. once a day, exp. 2, mean ± SEM
[10] = 50 mg/kg, chamber without growth factor

## Cc1nc(NC(=O)N2CCC[C@H]2C(N)=O)sc1-c1ccnc(C(C)(C)C(F)(F)F)c1 [Compound A, (S)-Pyrrolidine-1,2-dicarboxylic acid 2-amide 1-({4-methyl-5-[2-(2,2,2-trifluoro-1,1-dimethyl-ethyl)-pyridin-4-yl]-thiazol-2-yl}-amide)]
[1]; 12.5 mg/kg p.o. once a day, exp. 1, mean ± SEM
  % inhibition VEGF-stimulated, Capsule weight: 64 ± 33 (3) %
[1]; [6]
  % inhibition VEGF-stimulated, Capsule weight: 74 ± 24 (4) %
  % inhibition VEGF-stimulated, Total Tie-2: 58 ± 22 (4) %
[1]; 25 mg/kg p.o. once a day, exp. 1, mean ± SEM
  % inhibition VEGF-stimulated, Capsule weight: 84 ± 5 * (3) %
[1]; [7]
  % inhibition VEGF-stimulated, Capsule weight: 106 ± 28 * (4) %
  % inhibition VEGF-stimulated, Total Tie-2: 113 ± 38 * (4) %
[1]; 50 mg/kg given daily
  Tie-2 levels of the capsule, VEGF chamber: returned to the baseline or even below
[1]; [8]
  % inhibition VEGF-stimulated, Capsule weight: 88 ± 12 * (4) %
[1]; [9]
  % inhibition VEGF-stimulated, Capsule weight: 121 ± 11 * (6) %
  % inhibition VEGF-stimulated, Total Tie-2: 145 ± 9 * (6) %
[1]; once a day at 12.5, 25 and 50 mg/kg in solution
  angiogenic response induced by VEGF (weight and Tie-2 level of the capsule): inhibited significantly
[2]; [8]
  % inhibition Base line (no GF stimulation), Capsule weight: 14 ± 11 (2) %
[2]; [9]
  % inhibition Base line (no GF stimulation), Capsule weight: 12 ± 10 (3) %
  % inhibition Base line (no GF stimulation), Total Tie-2: 29 ± 9 * (3) %
[2]; [10]
  Tie-2 levels, basal induced angiogenesis: significantly reduced
  tissue weight, basal induced angiogenesis: did not affect tissue weight
[3]
  abrogation of VEGF-induced Evans blue dye extravasation: up to 90%
BN472 tumors [4]; 12.5 mg/kg
  IFP pattern over three days of treatment compared with 25 mg/kg: very similar pattern
  time post last treatment at which IFP returned to initial values: ≤ 60 h
BN472 tumors [4]; 25 mg/kg
  time post last treatment without normalization of IFP diminution: > 72 h
BN472 tumors [4]; 25 mg/kg, 4 hours post treatment
  reduction in IFP: clear and significant reduction
BN472 tumors [4]; 25 mg/kg, 22 hours post dosage
  IFP change at max after first treatment: −25%
BN472 tumors [4]; 25 mg/kg, second treatment at time point 24 hours
  IFP inhibition after second treatment: −36%
BN472 tumors [4]; 25 mg/kg, third treatment, sustained for 48 hours
  IFP inhibition after third treatment: −43%
BN472 tumors [5]; 20 mg/kg
  % change of body weight corrected: 1.2 ± 0.5%
  Mean fold change in tumor growth: 4.6 ± 0.8
  Survival (Survivors/total): 5/5
  Δ Body weight (mean g ± SEM): 4.0 ± 1.1 g
  Δ tumor volume (mean mm^3 ± SEM): 1725 ± 283 * mm^3
  T/C (%): 36% and 36 * %
BN472 tumors [5]; 40 mg/kg
  % change of body weight corrected: −1.8 ± 0.5%
  Mean fold change in tumor growth: 3.3 ± 0.2
  Survival (Survivors/total): 5/5
  Δ Body weight (mean g ± SEM): -2.5 ± 0.9 g
  Δ tumor volume (mean mm^3 ± SEM): 1108 ± 198 * mm^3
  T/C (%): 23% and 23 * %
